From ChEMBL document CHEMBL1143548, “Synthesis and evaluation of potential inhibitors of eIF4E cap binding to 7-methyl GTP” (Bioorg Med Chem Lett, 2005)

The compounds below were run against Eukaryotic translation initiation factor 4E (Homo sapiens, UniProt P06730) (assay: Inhibitory concentration against 7-methyl-GTP binding to eukaryotic translation initiation factor 4E).
Eukaryotic translation initiation factor 4E, sequence (P06730 whole entry): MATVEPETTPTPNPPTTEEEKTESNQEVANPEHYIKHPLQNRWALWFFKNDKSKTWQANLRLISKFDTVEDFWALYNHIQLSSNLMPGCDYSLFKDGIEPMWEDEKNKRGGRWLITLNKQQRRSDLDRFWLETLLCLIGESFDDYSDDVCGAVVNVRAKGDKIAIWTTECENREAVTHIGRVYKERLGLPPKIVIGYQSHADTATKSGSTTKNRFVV
`C[n+]1cn([C@@H]2O[C@H](CO)[C@@H](O)[C@H]2O)c2nc(N)nc([S-])c21` gave an IC50 of over 400 µM.
`Cn1cnc2c(c1=O)[n+](C)cn2[C@@H]1O[C@H](CO)[C@@H](O)[C@H]1O` gave an IC50 of over 400 µM.
`Nc1nc2c(c(=O)[nH]1)[n+](Cc1ccccc1)cn2[C@@H]1O[C@H](CO[PH](=O)[O-])[C@@H](O)[C@H]1O` was tested, and the IC50 was 200 µM.
`C[n+]1cn([C@H]2CC(O)[C@@H](COP(=O)(O)OP(=O)([O-])OP(=O)(O)O)O2)c2nc(N)[nH]c(=O)c21` (single isomer, unassigned) was tested, and the IC50 was 4 µM.
Compound `CNc1nc2c(ncn2[C@@H]2O[C@H](CO)C(O)[C@H]2O)c(=O)[nH]1` (single isomer, unassigned) has an IC50 of over 400 µM.
Work on `C=CC[n+]1cn([C@@H]2O[C@H](COP(=O)([O-])O)C(O)[C@H]2O)c2nc(N)[nH]c(=O)c21` (single isomer, unassigned) yielded an IC50 of 220 µM.
`CN(C)c1nc2c(ccn2[C@@H]2O[C@H](CO)C(O)[C@H]2O)c(=O)[nH]1` (single isomer, unassigned) was tested, and the IC50 was over 400 µM.
`C[n+]1cn([C@@H]2O[C@H](CO)C(O)[C@H]2O)c2nc(N)[nH]c(=O)c21` (single isomer, unassigned) gave an IC50 of over 400 µM.
`CC[n+]1cn([C@@H]2O[C@H](COP(=O)([O-])O)C(O)[C@H]2O)c2nc(N)[nH]c(=O)c21` (single isomer, unassigned) showed an IC50 of 100 µM.
With `Cc1ccc(SNc2nc3c(ncn3[C@@H]3O[C@H](CO)C(O)[C@H]3O)c(=O)[nH]2)cc1` (single isomer, unassigned) the IC50 was over 400 µM.
In the case of `Nc1nc2c(ncn2[C@@H]2O[C@H](CO[PH](=O)O)C(O)[C@H]2O)c(=O)[nH]1` (single isomer, unassigned), the IC50 is reported as 130 µM.
